Results reported in PMC7238241, “Lack of Correlation between In Vitro and In Vivo Studies on the Inhibitory Effects of (‒)-Sophoranone on CYP2C9 Is Attributable to Low Oral Absorption and Extensive Plasma Protein Binding of (‒)-Sophoranone” (Pharmaceutics, 2020).
Values joined by “and” are separate entries in the source; they are usually repeats but may differ in a detail not shown here. Equal values may be shown once. Read-outs that look alike come from different tables or passages of the source.

Key:
CYP2B6 = biological target: T1, CYP2B6 (Homo sapiens, UniProt P20813); assay: Reversible CYP2B6 inhibition, cocktail assay (bupropion hydroxylase) in human liver microsomes; assay type: biochemical
T1 construct: tissue Corning Life Sciences; host or cells: pooled human liver microsomes, 150 donors
T1 sequence (P20813 1-491): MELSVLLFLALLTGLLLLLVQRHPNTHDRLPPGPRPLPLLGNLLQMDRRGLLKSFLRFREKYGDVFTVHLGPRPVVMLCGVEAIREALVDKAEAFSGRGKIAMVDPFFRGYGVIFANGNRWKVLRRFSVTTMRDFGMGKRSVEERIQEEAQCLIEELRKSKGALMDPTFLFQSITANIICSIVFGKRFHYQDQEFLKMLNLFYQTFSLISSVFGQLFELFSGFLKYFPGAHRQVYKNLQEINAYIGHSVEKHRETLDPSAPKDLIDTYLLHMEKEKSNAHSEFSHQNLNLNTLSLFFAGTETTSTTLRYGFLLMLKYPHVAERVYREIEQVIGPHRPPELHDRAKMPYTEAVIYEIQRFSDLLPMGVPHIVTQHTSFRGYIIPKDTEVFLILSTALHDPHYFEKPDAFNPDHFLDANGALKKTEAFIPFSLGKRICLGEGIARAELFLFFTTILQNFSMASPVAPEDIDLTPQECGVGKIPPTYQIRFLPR
Protocol: The inhibitory effects of SPN on CYP1A2, CYP2A6, CYP2B6, CYP2C8, CYP2C9, CYP2C19, CYP2D6, CYP2E1, and CYP3A4 were evaluated in pooled human liver microsomes through the use of specific CYP probe substrates (cocktail assay), as previously described with a slight modification. Concentrations of each CYP probe in Table 1 were used close to their reported Km values.
Briefly, a 90-µL incubation mixture, including pooled human liver microsomes (final concentration 0.1 mg/mL), 50 mM phosphate buffer (pH 7.4), each CYP-probe substrate cocktail set, and SPN (0–50 μM), was pre-incubated for 5 min at 37 °C. SPN was dissolved in methanol and spiked into the incubation mixture to a final concentration of 0.5% methanol. […]
The IC50 values were calculated via nonlinear least-squares regression analysis from logarithmic plots of inhibitor concentration versus percentage of activity remaining after inhibition, using SigmaPlot (ver. 14.0; Systat Software Inc, Chicago, IL, USA). The Ki values were determined from the equations for a single substrate single inhibitor model and the software available in the SigmaPlot Enzyme Kinetics module. Competitive, non-competitive, uncompetitive, or mixed inhibition models were evaluated and ranked according to the best fit based on Akaike Information Criterion (AIC) values. […]

CYP2C9 = biological target: T2, CYP2C9 (Homo sapiens, UniProt P11712); assay: Inhibition of other CYP2C9-specific pathways (diclofenac 4′-hydroxylation, losartan oxidation) in human liver microsomes; assay type: biochemical
T2 construct: tissue Corning Life Sciences; host or cells: pooled human liver microsomes, 150 donors
Protocol: The auto-optimized mass transitions were m/z 312 > 231 and m/z 437 > 207.1 for quantification of 4′-hydroxydiclofenac and losartan carboxylic acid, respectively. HPLC conditions were the same as those in the cocktail assay.
The IC50 values were calculated via nonlinear least-squares regression analysis from logarithmic plots of inhibitor concentration versus percentage of activity remaining after inhibition, using SigmaPlot (ver. 14.0; Systat Software Inc, Chicago, IL, USA). The Ki values were determined from the equations for a single substrate single inhibitor model and the software available in the SigmaPlot Enzyme Kinetics module. Competitive, non-competitive, uncompetitive, or mixed inhibition models were evaluated and ranked according to the best fit based on Akaike Information Criterion (AIC) values. For visual inspection, the data were presented as Dixon plots.

[1] = Bi-directional Caco-2 cell permeability; assay type: in vitro ADME; conditions: human, Caco-2
Protocol: Caco-2 cell permeability was assessed to predict the oral absorption of SPN. Cell culture and transport studies were performed as previously described. Briefly, for the bi-directional transport studies, the cells were seeded at a density of 1 × 10^5 cells/well, and the cell medium was replaced until they formed confluent monolayers. On the 25th day, the cell monolayers were washed with pre-warmed HBSS buffer. […] Before the experiment, the integrity of the cell monolayers was evaluated by measuring the transepithelial electrical resistance using a Millicell ohmmeter. After 2 h incubation at 37 °C, samples were withdrawn from both sides, respectively. All samples were stored at −80 °C until LC-MS/MS analysis, and all experiments were performed in triplicate.
The apparent permeability coefficient (Papp) was calculated using the following equation. Papp = (Vr/C0) × (1/A) × ([Drug]/t) where, Vr is the volume of medium in the receiver chamber, C0 is the donor compartment concentration at time zero, A is the area of the cell monolayer, t is the treatment time of the drug, and [Drug] is the drug concentration in the receiver chamber.

[2] = Unbound fraction in human plasma (rapid equilibrium dialysis); assay type: in vitro ADME
Protocol: The plasma or liver microsomal protein bindings were performed using a rapid equilibrium dialysis device and cellulose membranes with a molecular weight cutoff of 8000 (Thermo Scientific, Rockford, IL, USA). The rat and human plasma samples (200 μL) containing SPN at 10 and 50 μM, respectively, were dialyzed against a dialysis buffer, phosphate-buffered saline (PBS, 400 μL). The loaded dialysis plate was covered with sealing tape, placed on an orbital shaker at approximately 200 rpm, and incubated at 37 °C for 4 h. Thereafter, samples (100 μL) from both PBS and plasma chambers were collected and mixed with an equal volume of blank plasma and PBS, respectively. All samples were stored at −80 °C until LC-MS/MS analysis. The unbound fraction of SPN in human (or rat) plasma was calculated by dividing the SPN concentration in PBS by that in plasma.

[3] = Unbound fraction in human liver microsomes (rapid equilibrium dialysis); assay type: in vitro ADME; conditions: microsomal protein 0.1 mg/mL, n = 3
Protocol: The human liver microsomal incubation mixtures (final concentration 0.1 mg/mL) without NADPH generating system were used to determine the unbound fraction of SPN. Other procedures were similar to those of plasma protein binding assay.

[4] = design: method as in PMID 26068519; conditions: rats, oral 12.9 mg/kg SPN; cited from earlier work
[5] = Effects of SPN on the pharmacokinetics of diclofenac in rats; conditions: rats
Protocol: The carotid arteries of each rat were cannulated with a polyethylene tube (Clay Adams, Franklin Lakes, NJ, USA) for blood sampling. Each rat was individually housed in a rat metabolic cage and allowed to recover from anesthesia for 4–5 h prior to the start of the experiment. […] SPN was suspended in dimethylsulfoxide:PEG400:distilled water (5:60:35, v/v/v) and administered by oral gavage at a dose of 75 mg/kg in a volume of 5 mL/kg. […] The blood samples were immediately centrifuged at 13,000× g for 5 min at 4 °C. The plasma samples were divided into two Eppendorf tubes by 50 μL and stored at −80 °C until LC-MS/MS analysis.
Briefly, 50 μL aliquots of plasma were extracted with 300 μL aliquots of acetonitrile containing chlorpropamide (internal standard), followed by LC-MS/MS (Shimadzu Corporation). Chromatographic separation was performed on a Phenomenex Luna C18 column (100 × 2.00 mm; 3.0 μm). The isocratic mobile phase consisted of 0.1% formic acid in distilled water (A) and 0.1% formic acid in acetonitrile (B) (45:55, v/v), with a flow rate of 0.3 mL/min. […] The data acquisition was computed using LabSolutions LCMS Ver.5.6 (Shimadzu Corporation).
Pharmacokinetic parameters were calculated by a non-compartmental analysis using WinNonlin Professional software (version 5.2, Pharsight Corp., Mountain View, CA, USA) that used the total area under the plasma concentration–time curve from time zero to infinity (AUC∞) or the last measured time (AUCt). The logarithmic trapezoidal rule was used during the declining plasma level phase and the linear trapezoidal rule was used for the rising plasma-level phase. The peak plasma concentration (Cmax) and time to reach Cmax (Tmax) were read directly from the experimental data. Statistically significant differences were recognized at p < 0.05.

T2 sequence (P11712 whole entry): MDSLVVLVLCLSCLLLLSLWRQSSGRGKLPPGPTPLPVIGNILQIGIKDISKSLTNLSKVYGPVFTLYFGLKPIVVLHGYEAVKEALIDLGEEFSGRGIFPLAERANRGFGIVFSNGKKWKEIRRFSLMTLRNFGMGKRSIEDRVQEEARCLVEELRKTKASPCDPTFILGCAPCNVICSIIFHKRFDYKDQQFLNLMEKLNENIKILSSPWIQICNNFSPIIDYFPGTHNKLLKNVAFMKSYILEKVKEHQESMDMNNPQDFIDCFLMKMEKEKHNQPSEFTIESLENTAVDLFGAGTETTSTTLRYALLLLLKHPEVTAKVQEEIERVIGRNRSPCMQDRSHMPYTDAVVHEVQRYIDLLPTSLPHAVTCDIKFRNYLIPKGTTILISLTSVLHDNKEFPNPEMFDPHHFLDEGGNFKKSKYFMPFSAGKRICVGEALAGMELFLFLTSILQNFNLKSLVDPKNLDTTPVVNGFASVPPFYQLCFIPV

residual enzyme activity, CYP2B6 (CYP2B6; at the highest tested concentration (50 μM)): greater than 80%
IC50 (CYP2B6; human liver microsomes 0.1 mg/mL, cocktail assay, bupropion probe, n = 3): > 50 µM
IC50 (CYP2C9; IC50, CYP2C9-catalyzed diclofenac 4′-hydroxylation, diclofenac 5 μM): 0.879 ± 0.0888 µM
IC50 (CYP2C9; losartan 5 μM, read-out: IC50, CYP2C9-catalyzed losartan oxidation): 0.455 ± 0.0486 µM
Papp A→B at 2 h, 10 µM ([1]; 10 μM, 2 h, n = 3): 0.115 ± 0.0369 ×10⁻⁶ cm/s
Papp B→A at 2 h, 10 µM ([1]; 10 μM, 2 h, n = 3): 0.101 ± 0.00444 ×10⁻⁶ cm/s
Papp A→B at 2 h, 50 µM ([1]; 50 μM, 2 h, n = 3): 0.172 ± 0.0488 ×10⁻⁶ cm/s
Papp B→A at 2 h, 50 µM ([1]; 50 μM, 2 h, n = 3): 0.152 ± 0.0353 ×10⁻⁶ cm/s
efflux ratio at 2 h ([1]; not a substrate for P-gp and BCRP, read-out: efflux ratio (B-to-A/A-to-B)): < 2
fraction unbound at 4 h, 10 µM ([2]; human, human plasma, 10 μM, 37 °C, 4 h, n = 3, read-out: free fraction in human plasma): 0.000457 ± 6.12e-05
fraction unbound at 4 h, 50 µM ([2]; human, human plasma, 50 μM, 37 °C, 4 h, n = 3, read-out: free fraction in human plasma): 0.000927 ± 0.0004
fraction unbound at 4 h ([2]; human, human plasma, 10 and 50 μM, read-out: plasma protein binding, human): < 0.001
fraction unbound at 4 h ([2]; mean over human and rat plasma in the range of 10 and 50 μM, read-out: mean unbound fraction in plasma): 0.000574
fraction unbound at 4 h, 10 µM ([3]; 10 μM): 0.00621 ± 0.000405
fraction unbound at 4 h, 50 µM ([3]; 50 μM): 0.00724 ± 0.0017
Cmax ([5]; male, Sprague-Dawley, rat, plasma, po, Cmax of SPN, oral SPN 75 mg/kg co-administered with diclofenac 2 mg/kg, n = 6): 33.7 ng/mL and 73.2 nM
Imax,u (unbound maximum concentration in plasma) ([5]; oral SPN 75 mg/kg, Cmax corrected for plasma protein binding): 0.0420 ± 0.0184 nM
SMILES: CC(C)=CCc1cc([C@@H]2CC(=O)c3ccc(O)c(CC=C(C)C)c3O2)cc(CC=C(C)C)c1O [SPN, (‒)-Sophoranone]
maximum plasma concentration (Cmax) [4]: approximately 13.1 ng/mL
effect of co-administration on the pharmacokinetics of diclofenac and 4′-hydroxydiclofenac ([5]; oral SPN 75 mg/kg 15 min before oral diclofenac 2 mg/kg): did not alter the pharmacokinetics of diclofenac and 4′-hydroxydiclofenac
